{"source": "patent US20230183239A1", "about": "“ECTONUCLEOTIDE PYROPHOSPHATASE-PHOSPHODIESTERASE 1 (ENPP-1) INHIBITORS AND USES THEREOF” (AbbVie Inc., priority 2017, published 2023)"}
{"molecular_target": "T1, ENPP1 (Homo sapiens, UniProt P22413)", "T1 sequence (P22413 1-925)": "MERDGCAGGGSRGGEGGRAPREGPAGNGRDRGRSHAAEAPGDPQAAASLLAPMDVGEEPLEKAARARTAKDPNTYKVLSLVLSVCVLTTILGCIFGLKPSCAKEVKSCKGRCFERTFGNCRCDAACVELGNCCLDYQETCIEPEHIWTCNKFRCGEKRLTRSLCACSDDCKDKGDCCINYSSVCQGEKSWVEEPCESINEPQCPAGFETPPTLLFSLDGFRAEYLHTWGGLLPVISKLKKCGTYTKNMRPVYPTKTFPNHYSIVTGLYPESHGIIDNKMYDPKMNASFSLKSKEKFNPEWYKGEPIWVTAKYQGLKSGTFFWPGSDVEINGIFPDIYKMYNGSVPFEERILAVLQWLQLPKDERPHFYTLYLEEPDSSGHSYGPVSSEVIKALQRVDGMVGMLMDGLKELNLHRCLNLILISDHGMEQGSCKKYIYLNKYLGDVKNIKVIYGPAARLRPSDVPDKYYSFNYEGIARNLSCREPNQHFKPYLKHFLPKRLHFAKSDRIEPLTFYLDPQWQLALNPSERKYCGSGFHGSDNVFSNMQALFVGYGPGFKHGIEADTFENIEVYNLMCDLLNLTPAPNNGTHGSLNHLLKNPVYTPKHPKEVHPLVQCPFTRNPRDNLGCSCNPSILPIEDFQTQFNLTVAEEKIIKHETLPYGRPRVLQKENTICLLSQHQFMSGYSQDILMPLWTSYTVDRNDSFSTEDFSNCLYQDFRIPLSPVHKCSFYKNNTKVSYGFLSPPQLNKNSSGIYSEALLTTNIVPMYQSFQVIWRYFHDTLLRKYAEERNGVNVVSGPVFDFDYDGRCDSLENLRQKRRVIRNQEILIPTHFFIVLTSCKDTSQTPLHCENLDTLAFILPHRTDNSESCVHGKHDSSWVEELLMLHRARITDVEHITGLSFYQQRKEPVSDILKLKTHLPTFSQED", "assay": "Indirect quantitation of 2',3'-cGAMP hydrolysis (AMP-Glo Assay kit)", "assay_type": "biochemical", "settings": "cGAMP substrate; Ki from IC50 by Cheng-Prusoff; read-out: ENPP1 Inhibition -cGAMP: Ki", "units": {"Ki": "nM"}}
{"smiles": "COc1ccc(S(=O)(=O)N2CCN(CCNS(N)(=O)=O)CC2)cc1OC", "note": "[Example 152, N-(2-(4-((3,4-dimethoxyphenyl)sulfonyl)piperazin-1-yl)ethyl)sulfamide]", "Ki": "> 1000"}
{"smiles": "NS(=O)(=O)NCCC1CCN(c2ccnc3ncn(-c4ccccc4)c23)CC1", "note": "[Example 211, N-(2-(1-(1-phenyl-1H-imidazo[4,5-b]pyridin-7-yl)piperidin-4-yl)ethyl)sulfamide]", "Ki": "> 1000"}
{"smiles": "COc1cc2nc(N(C)C)nc(N3CCC(CCNC=O)CC3)c2cc1OC", "note": "[Example 118, N-(2-(1-(2-(dimethylamino)-6,7-dimethoxyquinazolin-4-yl)piperidin-4-yl)ethyl)formamide]", "Ki": "> 1000"}
{"smiles": "Cn1ncc2c(N3CCC(CCNS(N)(=O)=O)CC3)ccnc21", "note": "[Example 135, N-(2-(1-(1-methyl-1H-pyrazolo[3,4-b]pyridin-4-yl)piperidin-4-yl)ethyl)sulfamide]", "Ki": "100 to 1000"}
{"smiles": "COc1cc2ncnc(NC(=O)c3ccc(NS(N)(=O)=O)cc3)c2cc1OC", "note": "[Example 188, N-(6,7-dimethoxyquinazolin-4-yl)-4-(sulfamoylamino)benzamide]", "Ki": "100 to 1000"}
{"smiles": "COc1cc(NC(C)=O)c(C(=O)N2CCC(CCNS(N)(=O)=O)CC2)cc1OC", "note": "[Example 44, N-(4,5-dimethoxy-2-(4-(2-(sulfamoylamino)ethyl)piperidine-1-carbonyl)phenyl)acetamide]", "Ki": "> 1000"}
{"smiles": "COc1cc2ncnc(N3CCC(CNc4nc5ccccc5[nH]4)CC3)c2cc1OC", "note": "[Example 251, N-((1-(6,7-dimethoxyquinazolin-4-yl)piperidin-4-yl)methyl)-1H-benzo[d]imidazol-2-amine]", "Ki": "> 1000"}
{"smiles": "COc1ccc2c(Oc3ccc(N(Cc4ccccc4)S(N)(=O)=O)cc3)ccnc2c1", "note": "[Example 309, N-benzyl-N-(4-((7-methoxyquinolin-4-yl)oxy)phenyl)sulfamide]", "Ki": "100 to 1000"}
{"smiles": "COc1cc2ncnc(NCc3ccc4c(c3)COB4O)c2cc1OC", "note": "[Example 325, 5-(((6,7-dimethoxyquinazolin-4-yl)amino)methyl)benzo[c][1,2]oxa borol-1(3H)-ol]", "Ki": "< 100"}
{"smiles": "COc1cc2ncc(Nc3ccc(NS(N)(=O)=O)cc3)nc2cc1OC", "note": "[Example 286, N-(4-((6,7-dimethoxyquinoxalin-2-yl)amino)phenyl)sulfamide]", "Ki": "> 1000"}
{"smiles": "COc1ccc2c(Oc3ccc(S(N)(=O)=O)cc3)c(C#N)cnc2c1", "note": "[Example 327, 4-((3-cyano-7-methoxyquinolin-4-yl)oxy)benzenesulfonamide]", "Ki": "< 100"}
{"smiles": "NS(=O)(=O)NCCC1CCN(c2ncnc3cc(OC(F)(F)F)ccc23)CC1", "note": "[Example 209, N-(2-(1-(7-(trifluoromethoxy)quinazolin-4-yl)piperidin-4-yl)ethyl)sulfamide]", "Ki": "> 1000"}
{"smiles": "Cn1cnc2ncnc(-c3ccc(CNS(N)(=O)=O)cc3)c21", "note": "[Example 128, N-(4-(7-methyl-7H-purin-6-yl)benzyl)sulfamide]", "Ki": "100 to 1000"}
{"smiles": "COc1cc2nccc(N3CCC(CN4CCCNS4(=O)=O)CC3)c2cc1OC", "note": "[Example 223, 2-((1-(6,7-dimethoxyquinolin-4-yl)piperidin-4-yl)methyl)-1,2,6-thiadiazinane 1,1-dioxide]", "Ki": "> 1000"}
{"smiles": "COc1cc2ncnc(-c3ccc(NS(N)(=O)=O)cc3)c2cc1OC", "note": "[Example 113, N-(4-(6,7-dimethoxyquinazolin-4-yl)phenyl)sulfamide]", "Ki": "100 to 1000"}
{"smiles": "CNc1cc(OC)c(OC)cc1C(=O)N1CCC(CCNS(N)(=O)=O)CC1", "note": "[Example 123, N-(2-(1-(4,5-dimethoxy-2-(methylamino)benzoyl)piperidin-4-yl)ethyl)sulfamide]", "Ki": "> 1000"}
{"smiles": "CNS(=O)(=O)NCCC1CCN(c2ncnc3cc(OC)c(OC)cc23)CC1", "note": "[Example 168, 2-(1-(6,7-dimethoxyquinazolin-4-yl)piperidin-4-yl)ethan-1-amino(N-methyl)sulfonamide]", "Ki": "> 1000"}
{"smiles": "COc1ccc2c(-c3ccc(CNS(N)(=O)=O)cc3OC)ccnc2c1", "note": "[Example 383, N-(3-methoxy-4-(7-methoxyquinolin-4-yl)benzyl)sulfamide]", "Ki": "> 1000"}
{"smiles": "COc1ccc2c(c1)OCCN2c1ccc(CNS(N)(=O)=O)cc1", "note": "[Example 405, N-(4-(7-methoxy-2,3-dihydro-4H-benzo[b][1,4]oxazin-4-yl)benzyl)sulfamide]", "Ki": "> 1000"}
{"smiles": "COc1cc2nccc(-c3ccc(CNS(N)(=O)=O)cc3)c2cn1", "note": "[Example 415, N-(4-(7-methoxy-1,6-naphthyridin-4-yl)benzyl)sulfamide]", "Ki": "100 to 1000"}
{"smiles": "COc1ccc2c(Oc3ccc(NS(N)(=O)=O)cn3)ccnc2c1", "note": "[Example 320, N-(6-((7-methoxyquinolin-4-yl)oxy)pyridin-3-yl)sulfamide]", "Ki": "< 100"}
{"smiles": "COc1ccc(C(=O)N2CCC(CCNS(N)(=O)=O)CC2)cc1OC", "note": "[Example 47, N (2-(1-(3,4-dimethoxybenzoyl)piperidin-4-yl)ethyl)sulfamide]", "Ki": "> 1000"}
{"smiles": "Cc1ncnc(N2CCC(NS(N)(=O)=O)CC2)c1C", "note": "[Example 39, N-(1-(5,6-dimethylpyrimidin-4-yl)piperidin-4-yl)sulfamide]", "Ki": "> 1000"}
{"smiles": "COc1ccc2c(-n3cc(CNS(N)(=O)=O)cn3)ccnc2c1", "note": "[Example 414, N-((1-(7-methoxyquinolin-4-yl)-1H-pyrazol-4-yl)methyl)sulfamide]", "Ki": "100 to 1000"}
{"smiles": "COc1cc2nccc(N3CCC(CCNS(=O)(=O)NCC(F)(F)F)CC3)c2cc1OC", "note": "[Example 177, 2-(1-(6,7-dimethoxyquinolin-4-yl)piperidin-4-yl)ethan-1-amino(N-trifluoroethyl) sulfonamide]", "Ki": "> 1000"}
{"smiles": "COc1cc2ncnc(N3CCC(CCNS(=O)(=O)c4ccccc4)CC3)c2cc1OC", "note": "[Example 116, N-(2-(1-(6,7-dimethoxyquinazolin-4-yl)piperidin-4-yl)ethyl)benzenesulfonamide]", "Ki": "> 1000"}
{"smiles": "COc1cc2nc(-c3ccccc3)nc(N3CCC(CCNS(N)(=O)=O)CC3)c2cc1OC", "note": "[Example 8, N-(2-(1-(6,7-dimethoxy-2-phenylquinazolin-4-yl)piperidin-4-yl)ethyl)sulfamide]", "Ki": "> 1000"}
{"smiles": "COc1cc2ncnc(N3CCC(CCNS(=O)(=O)C(F)(F)F)CC3)c2cc1OC", "note": "[Example 146, N-(2-(1-(6,7-dimethoxyquinazolin-4-yl)piperidin-4-yl)ethyl)-1,1,1-trifluoromethanesulfonamide]", "Ki": "100 to 1000"}
{"smiles": "COc1cc2ncnc(OCc3ccc(NS(N)(=O)=O)cc3)c2cc1OC", "note": "[Example 179, N-(4-(((6,7-dimethoxyquinazolin-4-yl)oxy)methyl)phenyl)sulfamide]", "Ki": "> 1000"}
{"smiles": "COc1ccc2c(c1)OCC(=O)N2Cc1ccc(NS(N)(=O)=O)cc1", "note": "[Example 401, N-(4-((7-methoxy-3-oxo-2,3-dihydro-4H-benzo[b][1,4]oxazin-4-yl)methyl)phenyl)sulfamide]", "Ki": "> 1000"}
{"smiles": "COc1ccc2nccc(Oc3ccc(NS(N)(=O)=O)cc3)c2n1", "note": "[Example 346, N-(4-((6-methoxy-1,5-naphthyridin-4-yl)oxy)phenyl)sulfamide]", "Ki": "100 to 1000"}
{"smiles": "COc1cc2ncnc(NC(C)(C)c3ccc(NS(N)(=O)=O)cc3)c2cc1OC", "note": "[Example 287, N-(4-(2-((6,7-dimethoxyquinazolin-4-yl)amino)propan-2-yl)phenyl)sulfamide]", "Ki": "> 1000"}
{"smiles": "COc1ccc2c(Oc3ccc(NS(N)(=O)=O)cc3C)ccnc2c1", "note": "[Example 326, N-(4-((7-methoxyquinolin-4-yl)oxy)-3-methylphenyl)sulfamide]", "Ki": "< 100"}
{"smiles": "COc1cc2ncc(-c3ccc(NS(N)(=O)=O)cc3)nc2cc1OC", "note": "[Example 270, N-(4-(6,7-dimethoxyquinoxalin-2-yl)phenyl)sulfamide]", "Ki": "> 1000"}
